According to patent US20170246189A1, “METHOD FOR TREATING UTERINE FIBROIDS” (LABORATOIRE HRA-PHARMA, priority 2008, published 2017):

Experiments:
uterine fibroids = assay: Randomized, placebo-controlled, double blinded, parallel trial: change in total fibroid volume by MR imaging; type: in vivo, human (women); conditions: for reduction in fibroid volume: three months (90 days), placebo +6%
Excerpt: (§1) Healthy women aged 33-50 years with symptomatic fibroids and regular menstrual cycles were considered for enrollment.
(§2) Inclusion criteria included regular cycles and contraceptive use, and symptomatic fibroids as defined by ACOG practice bulletin 1994: • Excessive uterine bleeding evidenced by either of the following: profuse bleeding with flooding or clots or repetitive periods lasting for more than 8 days; or anemia due to acute or chronic blood loss; • or pelvic discomfort caused by leiomyomata, either acute or severe or chronic lower abdominal or low back pressure or bladder pressure with urinary frequency not due to urinary tract infection.
(§3) Exclusion criteria included pregnancy, hemoglobin <10 g/dL, current hormone therapy, rapidly enlarging uterus and FSH […]. MR images were obtained to record fibroid number, location and volume, before starting study drug and within 2 weeks of surgery. Women took ulipristal at an oral dose of 10 or 20 mg, or placebo (PLC: microcrystalline cellulose) for 3 cycles, or 90 days if they became anovulatory. The percent change in total fibroid volume was compared, Wilcoxon rank sum test and t-test were used as needed.

[1] = system: benign metastatic leiomyoma; assay: Compassionate treatment of benign metastatic leiomyoma (single patient); type: in vivo, human; conditions: daily oral dose of 10-20 mg
Description: A person with known benign metastatic leiomyoma status post abdominal surgery that confirmed multiple nodules was treated with ulipristal (daily oral dose of 10-20 mg), in a compassionate protocol. […] More importantly, their pulmonary function tests improved from 50% of predicted to 103% of predicted after 3 months of treatment. They felt better.

fibroid tissue [2] = assay: TUNEL assay and IHC for Ki67 and phospho H3 on fibroid tissue sections (apoptosis and proliferation); type: in vivo, human (women); conditions: compared to placebo
Description: (§4) Pre-menopausal women with symptomatic fibroids received ulipristal (10 or 20 mg; n=12) or placebo (PL) (n=6) in a blinded, randomized allocation, for 90 days before hysterectomy. No other hormonal therapy was given. Fibroid tissue and adjacent myometrium were collected at surgery and processed in RNAlater (for RNA isolation). Fibroid tissue also was processed for paraffin embedding (for immunohistochemisty (IHC) and TUNEL assay). Total RNA was used for Affymetrix microarray with the U133 Plus 2.0 human chip. Differential transcription of genes of interest was confirmed by RT-PCR analysis. The TUNEL assay and IHC for Ki67 and phosphorylaied histone 3 (phospho H3) were applied to paraffin embedded tissue sections, and the percentage of positive stained cells was noted to assess apoptosis and proliferation. RT-PCR results and proliferation assays were analyzed using two-tailed student t-test; Kruskal-Wallis test was used to assess TUNEL assay results; P<0.05 was considered significant.

[3] = system: menstrual bleeding in women with symptomatic fibroids; assay: Randomized placebo-controlled trial: menstrual function / bleeding; type: in vivo, human (women); conditions: for menstrual bleeding: 3 cycles/90 days, placebo had monthly menses; for menses compared to placebo: 10 or 20 mg daily, 90 days
Excerpt: as §1, §2, §3
Additional analyses evaluated treatment-related differences in menstrual function.

fibroid tissue [4] = assay: Gene expression profiling (Affymetrix microarray, RT-PCR) of fibroid tissue after 90 days treatment; type: in vivo, human (women)
Description: as §4

fibroid = conditions: Murphy 1995, Zeng 1998; cited from earlier work

With “17α-acetoxy-11β-[4N,N-dimethylamino-phenyl) -19-norpregna- 4,9-diene-3,20-dione [ulipristal]” the “change in total fibroid volume” value (uterine fibroids; 10 mg and 20 mg groups combined, three months, placebo 6%, p=0.01) was -29%, the “reduction in fibroid volume” value (uterine fibroids; 10 mg oral daily) was 36% and the “reduction in fibroid volume” value (uterine fibroids; 20 mg oral daily) was 21%. The liver nodule [1] was “decrease in a liver nodule”, the right pleural effusion [1] was “resolution of a right pleural effusion” and the pulmonary function tests ([1]; after 3 months of treatment, improved from 50% of predicted) was 103 % of predicted. The uterine fibroids ([1]; two uterine fibroids) was “some decrease in two uterine fibroids”, the measures of proliferation (fibroid tissue [2]; IHC Ki67 and phospho H3, fibroids after 90 days 10 or 20 mg) was “decreased measures of proliferation” and the measures of apoptosis (fibroid tissue [2]; TUNEL assay, fibroids after 90 days 10 or 20 mg) was “increased measures of apoptosis”. The menstrual bleeding ([3]; 10 mg oral daily) was “single episode of menstrual bleeding”, the menstrual bleeding ([3]; 20 mg oral daily) was “no woman receiving 20 mg had any bleeding” and the “menses compared to placebo” value [3] was “induced amenorrhea”. For the same molecule, the “menses compared to placebo” value ([3]; listed as CDB-2914) was “significant reduction in menses”, the “genes expressed differentially between ulipristal and placebo” value (fibroid tissue [4]; microarray, 2 fold change cut-off and P<0.02) was 314 genes and the “Fold change of RT-PCR gene product, NDP” value (fibroid tissue [4]; ulipristal (10 or 20 mg, 90 days) treated compared to placebo, P 0.001) was −5.6. For the same molecule, the “Fold change of RT-PCR gene product, PLP1” value (fibroid tissue [4]; ulipristal (10 or 20 mg, 90 days) treated compared to placebo, P 0.006) was 9.2, the “Fold change of RT-PCR gene product, Wnt5A” value (fibroid tissue [4]; ulipristal (10 or 20 mg, 90 days) treated compared to placebo, P 0.008) was −2.4 and the “Fold change of RT-PCR gene product, ZAK” value (fibroid tissue [4]; ulipristal (10 or 20 mg, 90 days) treated compared to placebo, P 0.014) was 1.5. For the same molecule, the “Fold change of RT-PCR gene product, FAIM” value (fibroid tissue [4]; ulipristal (10 or 20 mg, 90 days) treated compared to placebo, P 0.017) was −1.8, the “Fold change of RT-PCR gene product, Clu” value (fibroid tissue [4]; ulipristal (10 or 20 mg, 90 days) treated compared to placebo, P 0.019) was −2.1 and the “Fold change of RT-PCR gene product, Bcl2” value (fibroid tissue [4]; ulipristal (10 or 20 mg, 90 days) treated compared to placebo, P 0.224) was −1.5.
In the case of `CC#C[C@]1(O)CC[C@H]2[C@@H]3CCC4=CC(=O)CCC4=C3[C@@H](c3ccc(N(C)C)cc3)C[C@@]21C` [mifepristone], the fibroid size (fibroid) is listed as “reduced fibroid size in a dose-dependent manner”.
